According to patent US7273896B2, “Compositions and methods of using a transient colorant” (Angiotech Pharmaceuticals (US), Inc., priority 2003, dated 2007):

Assay: Solubility of fluorescein in COH102 and COH206 buffer
Type: physicochemical
Settings: 0.1% in COH102 and COH206 buffer
Description: General Procedures. Transient colorants were subjected to irradiation or other sterilization methods to determine if they would be stable. Standard chemical mixing, measuring, and analytical methods were utilized. Solubilities for effective amounts of transient colorants mixed in starting materials (and in the final compositions) were verified by routine mixing followed by analytical procedures.
Fluorescein was tested at 0.1% in COH102 and COH206 buffer and found to be soluble. To test in COSEAL®, one-fifth volume of COH102 buffer was replaced with 0.1% to 1.0% fluorescein in COH102 buffer, and the PEGs, COH102, and COH206 were added and dissolved. The fluorescence was noted to go away upon dissolving the mixed PEGs, and the color changed to a light yellow. However, when the solution was sprayed with COH206 buffer to make the reaction product COSEAL®, the fluorescence returned. The final fluorescein concentration was 0.01% to 0.1% by weight of the final composition.

solubility: soluble
Structure (SMILES): O=C1OC2(c3ccc(O)cc3Oc3cc(O)ccc32)c2ccccc21 [Fluorescein, fluorescein]
